The values that follow come from patent US8318943B1, “Sorbitol/dexlansoprazole co-crystals and method for making same” (Takeda Pharmaceuticals U.S.A., Inc., priority 2010, dated 2012).

Values after ≈ are worked out from the molar mass of the structure shown. Read-outs that look alike come from different tables or passages of the source.

The nature of data set [1]: physchem. To be noted: thermodynamic from solid.
Procedure: (§1) The approximate solubilities of the sorbitol co-crystal former were estimated at 60° C. and of the 1:1 dexlansoprazole-sorbitol co-crystal at 40° C. and 10° C. […] The solubility values presented are intended to be regarded as rough estimates and are to be used solely for the design of crystallization experiments. All solvent mixtures are listed as ratios by volume (v/v).
(§2) The solubility values presented are intended to be regarded as rough estimates and are to be used solely for the design of crystallization experiments. All solvent mixtures are listed as ratios by volume (v/v).
Data set [2] in a line: Approximate solubility tests in selected solvents. The format is physicochemical. Conditions: organic solvent or mixture, read-out: Solubility [S, mg/ml]. From the text: A sample of dexlansoprazole sesquihydrate was characterized by FT-Raman spectroscopy, XRPD, ^1H-NMR and approximate solubility tests.
Accordingly, ethanol, ethyl acetate, acetonitrile, and THF were chosen as solvents for the co-crystal screening.

For data set [3] the following is noted: cited from earlier work.
The nature of data set [4]: Dynamic vapor sorption (DVS), hygroscopicity. The format is physicochemical. The method, then: DVS was carried out in a Surface Measurement System DVS-1. The sample was placed on a platinum holder on top of a microbalance and allowed to equilibrate for 2 hours at 50% r.h. before starting the pre-defined humidity program: 50→95% r.h. (5%/h); 5 hours at 95% r.h., 95→0% r.h. (5%/h); 5 h at 0% r.h., then 0→50% r.h. (5%/h); and 2 hours at 50% r.h.
The hygroscopicity was classified based on the mass gain at 85% r.h. relative to the initial mass as follows: deliquescent (sufficient water adsorbed to form a liquid), very hygroscopic (mass increase of ≧15%), hygroscopic (mass increase <15% but ≧2%), slightly hygroscopic (mass increase <2% but ≧0.2%), or non-hygroscopic (mass increase <0.2%).
In order to examine the behavior of SP134-SBT-P26 in the presence of variable water vapor pressure, the sample was analyzed by isothermal DVS at 25° C. […] The sample was conditioned at 50% r.h. before starting a pre-defined humidity program with a scanning rate of 5% r.h. change per hour. Below 50% r.h. a small but continuous mass loss of the sample is observed (˜0.07%). This mass loss is in good accordance to the results of the TG-FTIR-measurement and Karl Fischer water content determination.
In order to examine the behavior of SP134-SBT-P27 in the presence of variable water vapor pressure, the sample was analyzed by isothermal DVS at 25° C. The sample was conditioned at 50% r.h. before starting a pre-defined humidity program with a scanning rate of 5% r.h. change per hour. Below 50% r.h. a small but continuous mass loss of the sample is observed (˜0.06%). This mass loss is in good accordance to the results of the TG-FTIR-measurement and Karl Fischer water content determination.

The nature of data set [5]: Approximate solubility by manual dilution combined with visual observation.
Procedure: as §1, §2
Setting [6] is: 1:1 EtOAc/DMSO (v/v), organic solvent or mixture.
The mark [7] stands for this setting: 1:1 EtOH/H2O (v/v), aqueous with cosolvent or surfactant or cyclodextrin.
The mark [8] stands for this setting: 2:1 EtOH/H2O + 5 vol.-% NH3 solution, aqueous with cosolvent or surfactant or cyclodextrin.
The mark [9] stands for this setting: 2:1 MeOH/H2O + 5 vol.-% NH3 solution, aqueous with cosolvent or surfactant or cyclodextrin.
[10] abbreviates: 2:1 MeOH/borax buffer, pH 9, aqueous with cosolvent or surfactant or cyclodextrin.
Setting [11] is: 9:1 EtOAc/DMSO (v/v), organic solvent or mixture.
The mark [12] stands for this setting: DMSO, organic solvent or mixture.
The mark [13] stands for this setting: EtOAc, organic solvent or mixture.
The mark [14] stands for this setting: MeOH, organic solvent or mixture.
[15] abbreviates: isothermal DVS at 25° C., listed as SP134-SBT-P27.

Regarding `Cc1c(OCC(F)(F)F)ccnc1C[S@@+]([O-])c1nc2ccccc2[nH]1` [SP134-FD-P1, dexlansoprazole sesquihydrate, reference compound], the solubility was greater than 200 mg/mL in data set [1] (setting [6]); roughly 30 mg/mL in data set [1] (setting [7]); 100 to 200 mg/mL in data set [1] (setting [8]); 100 to 200 mg/mL in data set [1] (setting [9]); 90 to 190 mg/mL in data set [1] (setting [10]); greater than 200 mg/mL in data set [1] (setting [11]). The solubility was greater than 200 mg/mL in data set [1] (setting [12]); greater than 20 mg/mL in data set [1] (setting [13]); greater than 200 mg/mL in data set [1] (setting [14]); greater than 200 mg/mL in data set [1] (ethanol, organic solvent or mixture); less than 1 mg/mL in data set [1] (water); roughly 226 mg/mL in data set [2] (MEK). Moreover, the solubility in data set [2] (THF) is roughly 228 mg/mL; in data set [2] (acetone), roughly 230 mg/mL; in data set [2] (acetonitrile) it was roughly 210 mg/mL; in data set [2] (ethanol), roughly 228 mg/mL; in data set [2] (ethyl acetate) it was roughly 204 mg/mL; in data set [2] (methanol), roughly 204 mg/mL.

With `Cc1c(OCC(F)(F)F)ccnc1C[S@@+]([O-])c1nc2ccccc2[nH]1` [Dexlansoprazole], the Descriptive solubility entry in data set [3] (acetonitrile) is recorded as “soluble”; in data set [3] (dichloromethane) it was “freely soluble”; in data set [3] (dimethyl formamide), “freely soluble”; in data set [3] (ethanol), “freely soluble”; in data set [3] (ether), “slightly soluble”; in data set [3] (ethyl acetate) it was “freely soluble”. Also, the values for the Descriptive solubility entry in data set [3] (hexane), in data set [3] (methanol) and in data set [3] (water) were “substantially insoluble”, “freely soluble” and “very slightly soluble”, respectively. In data set [3] (light), the “Stability when exposed to light” value is “stable”. Moreover, the “Stability depending on pH conditions” value in data set [3] (neutral and alkaline vs acidic conditions) was “more stable in neutral and alkaline conditions than acidic conditions”.

Consider `OC[C@@H](O)[C@@H](O)[C@H](O)[C@@H](O)CO` [Sorbitol, D-sorbitol], for which the solubility in data set [1] (1:1 DMSO/EtOH (v/v), 60 °C, organic solvent or mixture) was greater than 102 mg/mL; in data set [1] (setting [6]), 125 to 250 mg/mL (≈ 686 to 1370 mM); in data set [1] (1:1 EtOAc/EtOH (v/v), 60 °C, organic solvent or mixture), 3 mg/mL (≈ 16.5 mM); in data set [1] (setting [7]), roughly 160 mg/mL (≈ 878 mM); in data set [1] (1:2 EtOAc/EtOH (v/v), 60 °C, organic solvent or mixture), 6 mg/mL (≈ 32.9 mM); in data set [1] (1:3 DMSO/EtOH (v/v), 60 °C, organic solvent or mixture), 54 to 108 mg/mL (≈ 296 to 593 mM). In addition, the solubility in data set [1] (1:3 EtOAc/EtOH (v/v), 60 °C, organic solvent or mixture) is 10 mg/mL (≈ 54.9 mM); in data set [1] (1:5 DMSO/EtOH (v/v), 60 °C, organic solvent or mixture), 39 to 59 mg/mL (≈ 214 to 324 mM); in data set [1] (1:5 EtOAc/EtOH (v/v), 60 °C, organic solvent or mixture), 11 mg/mL (≈ 60.4 mM); in data set [1] (setting [8]), 125 to 250 mg/mL; in data set [1] (setting [9]), greater than 250 mg/mL; in data set [1] (setting [10]), greater than 250 mg/mL. For the same molecule, the solubility in data set [1] (setting [11]) is roughly 1 mg/mL (≈ 5.49 mM); in data set [1] (setting [12]), greater than 200 mg/mL; in data set [1] (setting [13]), less than 1 mg/mL; in data set [1] (setting [14]) it was roughly 13 mg/mL (≈ 71.4 mM); in data set [1] (water), greater than 200 mg/mL.

As to `Cc1c(OCC(F)(F)F)ccnc1C[S@@+]([O-])c1nc2ccccc2[nH]1.OC[C@@H](O)[C@@H](O)[C@H](O)[C@@H](O)CO` [SP134-SBT-P26], the “FT-Raman post-DVS compared with pre-DVS/reference (form change)” value in data set [4] (after DVS cycle) was “no phase transition”. Also, the entries for the “DVS water uptake at about 85% r.h. relative to the mass at 0% r.h.” value in data set [4] (isothermal DVS at 25° C.) and in data set [4] (setting [15]) were 0.12% and 0.08%, respectively. For the same molecule, the “DVS mass loss below 50% r.h.” value in data set [4] (isothermal DVS at 25° C.) is roughly 0.07%; in data set [4] (setting [15]), roughly 0.06%. Moreover, the Hygroscopicity class result in data set [4] (isothermal DVS at 25° C., water uptake at about 85% r.h. relative to the mass at 0% r.h.) is “not hygroscopic”. In addition, the Approximate solubility was 14 to 16 mg/mL in data set [5] (1:3 DMSO/EtOH, 10° C.); 50 to 63 mg/mL in data set [5] (1:3 DMSO/EtOH, 40° C.); 11.5 to 12.5 mg/mL in data set [5] (1:4 DMSO/EtOH, 10° C.); greater than 37 mg/mL in data set [5] (1:4 DMSO/EtOH, 40° C.); 9.3 to 9.8 mg/mL in data set [5] (1:5 DMSO/EtOH, 10° C.); 17 to 23 mg/mL in data set [5] (1:5 DMSO/EtOH, 40° C.). The “Solubility relative to sorbitol and dexlansoprazole” value in data set [5] (DMSO/EtOH, 40° C.) is “less soluble than sorbitol and dexlansoprazole”.
